EC50 data for 23 compounds are collected here from patent US7902200B2, “Chemical compounds” (AstraZeneca AB, priority 2006, dated 2011).

One experiment has as its target T1, recombinant human pancreatic GLK (Homo sapiens, UniProt P35557).
T1 construct: 6-His (N); made in house; host or cells: E. coli BL21
T1 sequence (P35557 1-465): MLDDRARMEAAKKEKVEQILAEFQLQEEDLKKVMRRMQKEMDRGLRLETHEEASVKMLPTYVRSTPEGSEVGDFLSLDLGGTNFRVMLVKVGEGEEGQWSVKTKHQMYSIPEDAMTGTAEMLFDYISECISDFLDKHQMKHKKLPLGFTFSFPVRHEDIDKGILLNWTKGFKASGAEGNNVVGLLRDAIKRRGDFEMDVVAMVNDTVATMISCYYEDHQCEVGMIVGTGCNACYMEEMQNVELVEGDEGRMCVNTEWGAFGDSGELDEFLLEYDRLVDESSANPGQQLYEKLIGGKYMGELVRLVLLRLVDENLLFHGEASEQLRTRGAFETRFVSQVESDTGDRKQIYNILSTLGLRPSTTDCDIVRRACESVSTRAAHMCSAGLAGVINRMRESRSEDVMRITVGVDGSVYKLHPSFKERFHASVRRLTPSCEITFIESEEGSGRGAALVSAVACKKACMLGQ
As to the kind of experiment: GKH1 variant of GLK enzymatic activity assay (manual bench-top rate assay). It is filed as biochemical. As to conditions: activation of GLK; 60 nmol/l GLK; rate over 5 minute window; no GLKRP. The procedure: (§1) Enzymatic activity of recombinant human pancreatic GLK may be measured by incubating GLK, ATP and glucose. The rate of product formation may be determined by coupling the assay to a G-6-P dehydrogenase, NADP/NADPH system and measuring the linear increase with time of optical density at 340 nm (Brocklehurst et al (Diabetes 2004, 53, 535-541). Activation of GLK by compounds can be assessed using this assay in the presence or absence of GLKRP as described in Brocklehurst et al (Diabetes 2004, 53, 535-541).
(§2) One or both of two variants of this assay, GKH1 and GKH4, were used to test the compounds of the invention. The GKH1 assay is a manual, bench-top rate assay using 60 nmol/l of recombinant human pancreatic GLK. The GLK activity rate is measured over a 5 minute window using a Multiskan Ascent spectrophotometer. The GKH4 assay is an automated end-point assay using 10 nmol/l of recombinant human pancreatic GLK. The GLK activity is measured at 10 minutes after the initiation of the assay on a Perkin Elmer Envision spectrophotometer.
Consider `Cc1cnc(NC(=O)c2cc(Oc3ccc(C(=O)N4CCC4)nc3)cc(O[C@H]3CCN(C)C3=O)c2)cn1` [Example 1, 3-[6-(Azetidine-1-carbonyl)pyridin-3-yl]oxy-5-[(3S)-1-methyl-2-oxo-pyrrolidin-3-yl]oxy-N-(5-methylpyrazin-2-yl)benzamide], for which the EC50 (as a rule, the concentration needed to bring the measured effect to its halfway point) was 90 nM.
`Cc1cnc(NC(=O)c2cc(Oc3ccc(C(=O)N4CCC4)nc3)cc(O[C@@H]3CCN(C)C3=O)c2)cn1` [Example 2, 3-[6-(Azetidine-1-carbonyl)pyridin-3-yl]oxy-5-[(3R)-1-methyl-2-oxo-pyrrolidin-3-yl]oxy-N-(5-methylpyrazin-2-yl)benzamide]: the EC50 is 3930 nM.
For the compound `Cc1cnc(NC(=O)c2cc(Oc3ccc4c(c3)OCCN(C)S4(=O)=O)cc(O[C@H]3CCN(C)C3=O)c2)cn1` [Example 11, 3-[(5-methyl-6,6-dioxo-2-oxa-6-λ^6-thia-5-azabicyclo[5.4.0]undeca-8,10,12-trien-10-yl)oxy]-5-(1-methyl-2-oxo-pyrrolidin-3-yl)oxy-N-(5-methylpyrazin-2-yl)benzamide], the EC50 amounted to 140 nM.
The same measure, in the same setting: in the case of `CN1CC[C@H](Oc2cc(Oc3ccc(C(=O)N4CCC4)nc3)cc(C(=O)Nc3cnccn3)c2)C1=O` [Example 12, 3-[6-(Azetidine-1-carbonyl)pyridin-3-yl]oxy-5-[(3S)-1-methyl-2-oxo-pyrrolidin-3-yl]oxy-N-pyrazin-2-yl-benzamide] it was 300 nM.

Another experiment deals with T1, recombinant human pancreatic GLK. As to the kind of experiment: GKH4 variant of GLK enzymatic activity assay (automated end-point assay). It is filed as biochemical. To be noted: activation of GLK; 10 nmol/l GLK; end-point at 10 minutes; no GLKRP. The procedure:
as §1, §2
For `CCN1CCC(Oc2cc(Oc3ccc(C(=O)N4CCC4)nc3)cc(C(=O)Nc3cnc(C)cn3)c2)C1=O` (racemic) [Example 10, 3-[6-(Azetidine-1-carbonyl)pyridin-3-yl]oxy-5-(1-ethyl-2-oxo-pyrrolidin-3-yl)oxy-N-(5-methylpyrazin-2-yl)benzamide], the half-maximal effective concentration (EC50) was 260 nM.
Same read-out and setting: in the case of `Cc1cnc(NC(=O)c2cc(Oc3ccc(C(=O)N4CCC4)nc3)cc(OC3CCN(C4CCC4)C3=O)c2)cn1` (racemic) [Example 17, 3-[6-(Azetidine-1-carbonyl)pyridin-3-yl]oxy-5-(1-cyclobutyl-2-oxo-pyrrolidin-3-yl)oxy-N-(5-methylpyrazin-2-yl)benzamide] it was 600 nM; in that of `Cc1cnc(NC(=O)c2cc(Oc3ccc(C(=O)N4CCC4)nc3)cc(O[C@H]3CCN(C)C3=O)c2)cn1` [Example 1, 3-[6-(Azetidine-1-carbonyl)pyridin-3-yl]oxy-5-[(3S)-1-methyl-2-oxo-pyrrolidin-3-yl]oxy-N-(5-methylpyrazin-2-yl)benzamide], 300 nM; in that of `Cc1csc(NC(=O)c2cc(Oc3cnc(C(=O)N4CCC4)cn3)cc(O[C@H]3CCN(C)C3=O)c2)n1` [Example 3, 3-[5-(Azetidine-1-carbonyl)pyrazin-2-yl]oxy-5-[(3S)-1-methyl-2-oxo-pyrrolidin-3-yl]oxy-N-(4-methyl1,3-thiazol-2-yl)benzamide], 290 nM.
Still for that read-out and setting: in the case of `Cc1csc(NC(=O)c2cc(Oc3cnc(C(=O)N4CCC4)cn3)cc(O[C@@H]3CCN(C)C3=O)c2)n1` [Example 4, 3-[5-(Azetidine-1-carbonyl)pyrazin-2-yl]oxy-5-[(3R)-1-methyl-2-oxo-pyrrolidin-3-yl]oxy-N-(4-methyl1,3-thiazol-2-yl)benzamide] it was 18300 nM; in that of `CN1CC[C@H](Oc2cc(Oc3ccc(C(=O)N4CCC4)cc3)cc(C(=O)Nc3cc[nH]n3)c2)C1=O` [Example 5, 3-[4-(Azetidine-1-carbonyl)phenoxy]-5-[(3S)-1-methyl-2-oxo-pyrrolidin-3-yl]oxy-N-(1H-pyrazol-3-yl)benzamide], 150 nM.
Consider `Cc1cnc(NC(=O)c2cc(Oc3ncc(C(=O)N4CCC4)cc3Cl)cc(O[C@H]3CCN(C)C3=O)c2)cn1` [Example 6, 3-[5-(Azetidine-1-carbonyl)-3-chloro-pyridin-2-yl]oxy-5-[(3S)-1-methyl-2-oxo-pyrrolidin-3-yl]oxy-N-(5-methylpyrazin-2-yl)benzamide], for which the EC50 is 190 nM.
Take `Cc1cnc(NC(=O)c2cc(Oc3ccc(S(C)(=O)=O)cc3)cc(O[C@H]3CCN(C)C3=O)c2)cn1` [Example 7, 3-[(3S)-1-Methyl-2-oxo-pyrrolidin-3-yl]oxy-N-(5-methylpyrazin-2-yl)-5-(4-methylsulfonylphenoxy)benzamide]: the EC50 came to 570 nM.
On the same count and under the same terms, as for `Cc1cnc(NC(=O)c2cc(Oc3ccc(C(=O)N4CCC4)cc3)cc(O[C@H]3CCN(C)C3=O)c2)cn1` [Example 8, 3-[4-(Azetidine-1-carbonyl)phenoxy]-5-[(3S)-1-methyl-2-oxo-pyrrolidin-3-yl]oxy-N-(5-methylpyrazin-2-yl)benzamide], the figure is 190 nM; as for `Cc1cnc(NC(=O)c2cc(Oc3ccc4c(c3)OCCCS4(=O)=O)cc(O[C@H]3CCN(C)C3=O)c2)cn1` [Example 9, 3-[(2,2-Dioxo-6-oxa-2-λ^6-thiabicyclo[5.4.0]undeca-7,9,11-trien-9-yl)oxy]-5-[(3S)-1-methyl-2-oxo-pyrrolidin-3-yl]oxy-N-(5-methylpyrazin-2-yl)benzamide], 120 nM.
The same measure, in the same setting: as for `Cc1cnc(NC(=O)c2cc(Oc3ccc4c(c3)OCCN(C)S4(=O)=O)cc(O[C@H]3CCN(C)C3=O)c2)cn1` [Example 11, 3-[(5-methyl-6,6-dioxo-2-oxa-6-λ^6-thia-5-azabicyclo[5.4.0]undeca-8,10,12-trien-10-yl)oxy]-5-(1-methyl-2-oxo-pyrrolidin-3-yl)oxy-N-(5-methylpyrazin-2-yl)benzamide], the figure is 310 nM; as for `CN1CC[C@H](Oc2cc(Oc3ccc(C(=O)N4CCC4)nc3)cc(C(=O)Nc3cnccn3)c2)C1=O` [Example 12, 3-[6-(Azetidine-1-carbonyl)pyridin-3-yl]oxy-5-[(3S)-1-methyl-2-oxo-pyrrolidin-3-yl]oxy-N-pyrazin-2-yl-benzamide], 430 nM.
Take `Cc1cnc(NC(=O)c2cc(Oc3ccc4c(c3Cl)OCCN(C)C4=O)cc(O[C@H]3CCN(C)C3=O)c2)cn1` [Example 14, 3-[(11-Chloro-5-methyl-6-oxo-2-oxa-5-azabicyclo[5.4.0]undeca-8,10,12-trien-10-yl)oxy]-5-[(3S)-1-methyl-2-oxo-pyrrolidin-3-yl]oxy-N-(5-methylpyrazin-2-yl)benzamide]: the EC50 is 80 nM.
As to `Cc1cnc(NC(=O)c2cc(Oc3ccc4c(c3)OCCN(C)C4=O)cc(O[C@H]3CCN(C)C3=O)c2)cn1` [Example 16, 3-[(5-Methyl-6-oxo-2-oxa-5-azabicyclo[5.4.0]undeca-8,10,12-trien-10-yl)oxy]-5-[(3S)-1-methyl-2-oxo-pyrrolidin-3-yl]oxy-N-(5-methylpyrazin-2-yl)benzamide], the EC50 turned out to be 310 nM.
`Cc1cnc(NC(=O)c2cc(Oc3ccc(C(=O)N4CCC4)nc3)cc(O[C@H]3CCN(C4CC4)C3=O)c2)cn1` [Example 19, 3-[6-(Azetidine-1-carbonyl)pyridin-3-yl]oxy-5-[(3S)-1-cyclopropyl-2-oxo-pyrrolidin-3-yl]oxy-N-(5-methylpyrazin-2-yl)benzamide]: the EC50 was 590 nM.
On to `Cc1cnc(NC(=O)c2cc(Oc3ccc(C(=O)N(C)C)cc3Cl)cc(O[C@H]3CCN(C)C3=O)c2)cn1` [Example 26, 3-[2-Chloro-4-(dimethylcarbamoyl)phenoxy]-5-[(3S)-1-methyl-2-oxo-pyrrolidin-3-yl]oxy-N-(5-methylpyrazin-2-yl)benzamide], for which the EC50 was 390 nM.
In the case of `Cc1cnc(NC(=O)c2cc(Oc3ccc4c(c3)OCCNS4(=O)=O)cc(O[C@H]3CCN(C)C3=O)c2)cn1` [Example 27, 3-[(6,6-dioxo-2-oxa-6-λ^6-thia-5-azabicyclo[5.4.0]undeca-8,10,12-trien-10-yl)oxy]-5-[(3S)-1-methyl-2-oxo-pyrrolidin-3-yl]oxy-N-(5-methylpyrazin-2-yl)benzamide], the EC50 was determined as 660 nM.
For the compound `Cc1cnc(NC(=O)c2cc(Oc3ccc(S(C)(=O)=O)nc3)cc(O[C@H]3CCN(C)C3=O)c2)cn1` [Example 28, 3-[(3S)-1-methyl-2-oxo-pyrrolidin-3-yl]oxy-N-(5-methylpyrazin-2-yl)-5-(6-methylsulfonylpyridin-3-yl)oxy-benzamide], the EC50 is 570 nM.
With `Cc1cnc(NC(=O)c2cc(Oc3ccc(C(=O)N(C)C)nc3)cc(O[C@H]3CCN(C)C3=O)c2)cn1` [Example 29, N,N-dimethyl-5-[3-[(3S)-1-methyl-2-oxo-pyrrolidin-3-yl]oxy-5-[(5-methylpyrazin-2-yl)carbamoyl]phenoxy]pyridine-2-carboxamide], the EC50 was determined as 100 nM.
Regarding `CN1COc2cc(Oc3cc(O[C@H]4CCN(C)C4=O)cc(C(=O)Nc4cc[nH]n4)c3)ccc2C1=O` [Example 30, 3-[(9-methyl-10-oxo-7-oxa-9-azabicyclo[4.4.0]deca-2,4,11-trien-4-yl)oxy]-5-[(3S)-1-methyl-2-oxo-pyrrolidin-3-yl]oxy-N-(1H-pyrazol-3-yl)benzamide], the EC50 amounted to 60 nM.
The same measure, in the same setting: in the case of `Cc1nsc(NC(=O)c2cc(Oc3cnc(C(=O)N(C)C)cn3)cc(O[C@H]3CCN(C)C3=O)c2)n1` [Example 31, N,N-dimethyl-5-[3-[(3S)-1-methyl-2-oxo-pyrrolidin-3-yl]oxy-5-[(3-methyl-1,2,4-thiadiazol-5-yl)carbamoyl]phenoxy]pyrazine-2-carboxamide] it was 1080 nM; in that of `Cc1csc(NC(=O)c2cc(Oc3cnc(C(=O)N(C)C)cn3)cc(O[C@H]3CCN(C)C3=O)c2)n1` [Example 32, N,N-Dimethyl-5-[3-[(3S)-1-methyl-2-oxo-pyrrolidin-3-yl]oxy-5-[(4-methyl-1,3-thiazol-2-yl)carbamoyl]phenoxy]pyrazine-2-carboxamide], 60 nM.
